Experimental data reported in patent US20240270762A1, “PENICILLIN-BINDING PROTEIN INHIBITORS” (priority 2021, published 2024).
Converted amounts (≈) assume the structure as drawn. Read-outs that look alike come from different tables or passages of the source.

What was measured:
[1] = target: T1, PBP2 from Neisseria gonorrhoeae (FA19) (Neisseria gonorrhoeae, UniProt P08149); assay: Bocillin-FL fluorescence polarization competition binding, N. gonorrhoeae PBP2; conditions: fluorescence polarization competition binding assay using Bocillin-FL, read-out: N. gonorrhoeae PBP2 Potency
T1 construct: made in house
Summary of the method: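 Fluorescence polarization competition with 0.1 μM Bocillin-FL (fluorescent penicillin V) against 0.25 μM N. gonorrhoeae FA19 PBP2 in 50 mM Hepes pH 8.0, 300 mM NaCl, 10% glycerol. Boronic acid inhibitors were preincubated with PBP, then Bocillin-FL was added and FP read (490/520 nm) up to 60 min. EC50 is the concentration halving PBP-bound Bocillin-FL.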

E. coli ATCC 25922 = assay: microbe, parasite or virus in culture; format: cell-based; conditions: Escherichia coli, ATCC25922, read-out: MIC E. coli 25922
E. coli AG100 = assay: microbe, parasite or virus in culture; format: cell-based; conditions: Escherichia coli, AG100, read-out: MIC E. coli AG100
E. coli 901C = assay: microbe, parasite or virus in culture; format: cell-based; conditions: Escherichia coli, read-out: MIC E. coli 901C
E. coli D22 = assay: microbe, parasite or virus in culture; format: cell-based; conditions: Escherichia coli, D22, read-out: MIC E. coli D22
E. coli AG100A = assay: Broth microdilution MIC in CAMHB; format: cell-based; conditions: Escherichia coli, read-out: MIC E. coli AG100A
K. pneumoniae 848844 = assay: microbe, parasite or virus in culture; format: cell-based; conditions: Klebsiella pneumoniae, 848844, read-out: MIC K. pneumoniae 848844
K. pneumoniae UMM = assay: microbe, parasite or virus in culture; format: cell-based; conditions: Klebsiella pneumoniae, read-out: MIC K. pneumoniae UMM
K. pneumoniae SI-117 = assay: microbe, parasite or virus in culture; format: cell-based; conditions: Klebsiella pneumoniae, SI117, read-out: MIC K. pneumoniae SI-117
P. aeruginosa ATCC 27853 = assay: microbe, parasite or virus in culture; format: cell-based; conditions: Pseudomonas aeruginosa, ATCC27853, read-out: MIC P. aeruginosa ATCC 27853
A. baumannii ATCC 19606 = assay: microbe, parasite or virus in culture; format: cell-based; conditions: Acinetobacter baumannii, ATCC19606, read-out: MIC, A. baumannii ATCC 19606
P. aeruginosa ATCC 35151 = assay: microbe, parasite or virus in culture; format: cell-based; conditions: Pseudomonas aeruginosa, ATCC35151, read-out: MIC P. aeruginosa ATCC 35151
[2] = tested on: P. aeruginosa (ΔmexAB-oprM); assay: Broth microdilution MIC in CAMHB; format: cell-based; conditions: Pseudomonas aeruginosa; read-out: MIC P. aeruginosa ΔmexAB-oprM
[3] = tested on: N. gonorrhoeae ATCC 49226; assay: Liquid broth MIC in Fastidious broth; conditions: Neisseria gonorrhoeae
N. gonorrhoeae WHO L = assay: Liquid broth MIC in Fastidious broth; conditions: Neisseria gonorrhoeae
N. gonorrhoeae WHO K = assay: Liquid broth MIC in Fastidious broth; conditions: Neisseria gonorrhoeae
Protocol: Liquid broth-based assays were used for antibacterial testing of PBP inhibitors in Neisseria gonorrhoeae. Briefly, cryo-preserved bacterial cultures of clinical strains were streaked for isolation on Chocolate Agar (72 g/L (2×) GC Agar Base (BD #228950) and 2% (2×) Hemoglobin was autoclaved at 121° C. for 20 minutes to sterilize. Once cooled to ˜50° C. the 2×GC Agar Base and 2× Hemoglobin solutions are combined and 1% IsoVitaleX Enrichment (BD #211876) was added to the solution). Strains were incubated at 36° C. and 5% CO2 to allow growth of colonies, 24 hours before inoculum preparation. 2-fold serial dilutions of test compounds were conducted in a 96 well plate with a final volume of 75 μL per well at 2-fold the final desired concentration in Fastidious broth (Remel #R07664). For preparation of assay inoculum, a direct suspension was prepared by aseptically swabbing 10-15 colonies from agar plates into culture tubes containing 2 mL of fresh sterile saline. After the dilution plates were set up, direct suspensions were then diluted in a cuvette containing sterile saline and the optical density was measured at 600 nm. Inocula were diluted such that 75 μL of this culture in Fastidious broth results in a starting bacterial concentration of 5×10^5 CFU/mL when added to the dilution plates. The plates were incubated for ˜24 hours at 36° C. and 5% CO2.

N. gonorrhoeae WHO Z = assay: Liquid broth MIC in Fastidious broth; conditions: Neisseria gonorrhoeae
[4] = ATCC49226, read-out: Minimum Inhibitory Concentration (MIC), N. gonorrhoeae ATCC 49226
[5] = read-out: Minimum Inhibitory Concentration (MIC), N. gonorrhoeae WHO L
[6] = read-out: Minimum Inhibitory Concentration (MIC), N. gonorrhoeae WHO K
[7] = read-out: Minimum Inhibitory Concentration (MIC), N. gonorrhoeae WHO Z
[8] = ATCC49226, read-out: Minimum Inhibitory Concentration, ATCC 49226
[9] = read-out: Minimum Inhibitory Concentration, WHO L
[10] = read-out: Minimum Inhibitory Concentration, WHO K
[11] = read-out: Minimum Inhibitory Concentration, WHO Z

T1 sequence (P08149 whole entry): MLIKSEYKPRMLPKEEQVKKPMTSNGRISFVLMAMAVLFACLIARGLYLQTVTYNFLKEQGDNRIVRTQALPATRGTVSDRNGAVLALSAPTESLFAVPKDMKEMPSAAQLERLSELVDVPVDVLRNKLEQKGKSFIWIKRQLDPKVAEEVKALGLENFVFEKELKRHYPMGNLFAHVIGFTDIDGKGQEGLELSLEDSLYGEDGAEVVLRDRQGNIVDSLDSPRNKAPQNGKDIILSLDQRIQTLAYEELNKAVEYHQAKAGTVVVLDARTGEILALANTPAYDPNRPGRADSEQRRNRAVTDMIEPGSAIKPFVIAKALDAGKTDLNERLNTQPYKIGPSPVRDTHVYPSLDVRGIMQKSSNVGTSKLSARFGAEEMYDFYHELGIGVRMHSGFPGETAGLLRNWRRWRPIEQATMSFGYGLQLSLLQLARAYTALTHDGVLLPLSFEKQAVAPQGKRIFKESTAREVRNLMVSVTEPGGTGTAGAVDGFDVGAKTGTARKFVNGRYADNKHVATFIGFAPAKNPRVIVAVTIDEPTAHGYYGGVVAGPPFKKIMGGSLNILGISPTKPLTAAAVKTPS

Compound | EC50 [1] [µM] | MIC (E. coli ATCC 25922) [µg/mL] | MIC (E. coli AG100) [µg/mL] | MIC (E. coli 901C) [µg/mL] | MIC (E. coli D22) [µg/mL] | MIC (E. coli AG100A) [µg/mL] | MIC (K. pneumoniae 848844) [µg/mL] | MIC (K. pneumoniae UMM) [µg/mL] | MIC (K. pneumoniae SI-117) [µg/mL] | MIC (P. aeruginosa ATCC 27853) [µg/mL] | MIC (A. baumannii ATCC 19606) [µg/mL] | MIC (P. aeruginosa ATCC 35151) [µg/mL] | MIC [2] [µg/mL] | MIC [3, 4] [µg/mL] | MIC (N. gonorrhoeae WHO L; [5]) [µg/mL] | MIC (N. gonorrhoeae WHO K; [6]) [µg/mL] | MIC [3, 8] [µg/mL] | MIC (N. gonorrhoeae WHO L; [9]) [µg/mL] | MIC (N. gonorrhoeae WHO K; [10]) [µg/mL] | MIC (N. gonorrhoeae WHO Z; [11]) [µg/mL] | also measured
CS(=O)(=O)N1CCN(C(=O)N[C@H](C(=O)N[C@H]2Cc3cccc(C(=O)O)c3OB2O)c2ccc(P(=O)(O)O)cc2)C1=O (single isomer, unassigned) [Example 5] | < 10 | > 128 | 32 to 64 (≈ 52.4 to 105 µM) | < 1 | 8 to 16 (≈ 13.1 to 26.2 µM) | 32 to 64 (≈ 52.4 to 105 µM) | > 128 | > 128 | > 128 | > 128 | > 128 | 8 to 16 (≈ 13.1 to 26.2 µM) | 32 to 64 (≈ 52.4 to 105 µM) | < 1 | 4 to 8 (≈ 6.55 to 13.1 µM) | 1 to 2 (≈ 1.64 to 3.28 µM) | – | – | – | – | MIC (N. gonorrhoeae WHO Z; [7]): < 1 µg/mL
CS(=O)(=O)N1CCN(C(=O)N[C@@H](C(=O)N[C@H]2Cc3cccc(C(=O)O)c3OB2O)c2ccc(P(=O)(O)O)cc2)C1=O (single isomer, unassigned) [Example 6] | < 10 | 32 to 64 (≈ 52.4 to 105 µM) | 8 to 16 (≈ 13.1 to 26.2 µM) | < 1 | 2 to 4 (≈ 3.28 to 6.55 µM) | 8 to 16 (≈ 13.1 to 26.2 µM) | > 128 | 32 to 64 (≈ 52.4 to 105 µM) | > 128 | > 128 | 8 to 16 (≈ 13.1 to 26.2 µM) | < 1 | 8 to 16 (≈ 13.1 to 26.2 µM) | < 1 | < 1 | < 1 | – | – | – | – | MIC (N. gonorrhoeae WHO Z; [7]): < 1 µg/mL
CCN1CCN(C(=O)NC(C(=O)N[C@H]2Cc3cccc(C(=O)O)c3OB2O)c2ccc(P(=O)(O)O)cc2F)C(=O)C1=O (stereo partly drawn) [Example 1, (3R)-3-(2-(4-ethyl-2,3-dioxopiperazine-1-carboxamido)-2-(2-fluoro-4-phosphonophenyl)acetamido)-2-hydroxy-3,4-dihydro-2H-benzo[e][1,2]oxaborinine-8-carboxylic acid] | < 10 | > 128 | 32 to 64 (≈ 52.8 to 106 µM) | < 1 | 2 to 4 (≈ 3.3 to 6.6 µM) | 8 to 16 (≈ 13.2 to 26.4 µM) | > 128 | 32 to 64 (≈ 52.8 to 106 µM) | > 128 | > 128 | 32 to 64 (≈ 52.8 to 106 µM) | < 1 | 32 to 64 (≈ 52.8 to 106 µM) | < 1 | 1 to 2 (≈ 1.65 to 3.3 µM) | < 1 | – | – | – | – | MIC (N. gonorrhoeae WHO Z; [7]): < 1 µg/mL
CCN1CCN(C(=O)NC(C(=O)N[C@H]2Cc3cccc(C(=O)O)c3OB2O)c2cc(P(=O)(O)O)ccc2F)C(=O)C1=O (stereo partly drawn) [Example 2, (3R)-3-(2-(4-ethyl-2,3-dioxopiperazine-1-carboxamido)-2-(2-fluoro-5-phosphonophenyl)acetamido)-2-hydroxy-3,4-dihydro-2H-benzo[e][1,2]oxaborinine-8-carboxylic acid] | < 10 | > 128 | 32 to 64 (≈ 52.8 to 106 µM) | < 1 | 2 to 4 (≈ 3.3 to 6.6 µM) | 32 to 64 (≈ 52.8 to 106 µM) | > 128 | 32 to 64 (≈ 52.8 to 106 µM) | > 128 | > 128 | > 128 | < 1 | 8 to 16 (≈ 13.2 to 26.4 µM) | 4 to 8 (≈ 6.6 to 13.2 µM) | > 64 | 16 to 32 (≈ 26.4 to 52.8 µM) | – | – | – | – | MIC (N. gonorrhoeae WHO Z; [7]): 4 to 8 µg/mL (≈ 6.6 to 13.2 µM)
NCCN1CCN(C(=O)NC(C(=O)N[C@H]2Cc3cccc(C(=O)O)c3OB2O)c2ccc(P(=O)(O)O)cc2)C(=O)C1=O (stereo partly drawn) [Example 3, (3R)-3-(2-(4-(2-aminoethyl)-2,3-dioxopiperazine-1-carboxamido)-2-(4-phosphonophenyl)acetamido)-2-hydroxy-3,4-dihydro-2H-benzo[e][1,2]oxaborinine-8-carboxylic acid] | < 10 | 32 to 64 (≈ 53 to 106 µM) | 32 to 64 (≈ 53 to 106 µM) | 2 to 4 (≈ 3.32 to 6.63 µM) | 8 to 16 (≈ 13.3 to 26.5 µM) | 8 to 16 (≈ 13.3 to 26.5 µM) | > 128 | 32 to 64 (≈ 53 to 106 µM) | > 128 | > 128 | 32 to 64 (≈ 53 to 106 µM) | < 1 | 32 to 64 (≈ 53 to 106 µM) | < 1 | 4 to 8 (≈ 6.63 to 13.3 µM) | 4 to 8 (≈ 6.63 to 13.3 µM) | – | – | – | – | MIC (N. gonorrhoeae WHO Z; [7]): 1 to 2 µg/mL (≈ 1.66 to 3.32 µM)
O=C(NCCCN1CCN(C(=O)N[C@H](C(=O)N[C@H]2Cc3ccc(F)c(C(=O)O)c3OB2O)c2cc(F)c(O)c(O)c2Cl)C(=O)C1=O)c1cccc(O)c1Cl [Example 302, (R)-3-((S)-2-(4-(3-(2-chloro-3-hydroxybenzamido)propyl)-2,3-dioxopiperazine-1-carboxamido)-2-(2-chloro-5-fluoro-3,4-dihydroxyphenyl)acetamido)-7-fluoro-2-hydroxy-3,4-dihydro-2H-benzo[e][1,2]oxaborinine-8-carboxylic acid] | – | – | – | – | – | – | – | – | – | – | – | – | – | – | – | – | > 64 | > 64 | > 64 | > 64 | –
O=C(NCCCN1CCN(C(=O)N[C@@H](C(=O)N[C@H]2Cc3ccc(F)c(C(=O)O)c3OB2O)c2cc(F)c(O)c(O)c2Cl)C(=O)C1=O)c1cccc(O)c1Cl [Example 303, (R)-3-((R)-2-(4-(3-(2-chloro-3-hydroxybenzamido)propyl)-2,3-dioxopiperazine-1-carboxamido)-2-(2-chloro-5-fluoro-3,4-dihydroxyphenyl)acetamido)-7-fluoro-2-hydroxy-3,4-dihydro-2H-benzo[e][1,2]oxaborinine-8-carboxylic acid] | – | – | – | – | – | – | – | – | – | – | – | – | – | – | – | – | 4 to 8 (≈ 5.04 to 10.1 µM) | > 64 | > 64 | 16 to 32 (≈ 20.1 to 40.3 µM) | –
O=C(NCCCN1CCN(C(=O)NC(C(=O)N[C@H]2Cc3ccc(F)c(C(=O)O)c3OB2O)c2cc(F)c(O)c(O)c2Cl)C(=O)C1=O)c1ccc(O)c(F)c1 (stereo partly drawn) [Example 304, (3R)-3-(2-(2-chloro-5-fluoro-3,4-dihydroxyphenyl)-2-(4-(3-(3-fluoro-4-hydroxybenzamido)propyl)-2,3-dioxopiperazine-1-carboxamido)acetamido)-7-fluoro-2-hydroxy-3,4-dihydro-2H-benzo[e][1,2]oxaborinine-8-carboxylic acid] | – | – | – | – | – | – | – | – | – | – | – | – | – | – | – | – | 16 to 32 (≈ 20.6 to 41.1 µM) | > 64 | > 64 | > 64 | –
O=C(NCCCN1CCN(C(=O)NC(C(=O)N[C@H]2Cc3ccc(F)c(C(=O)O)c3OB2O)c2cc(F)c(O)c(O)c2Cl)C(=O)C1=O)c1ccc(O)c(Cl)c1 (stereo partly drawn) [Example 305, (3R)-3-(2-(4-(3-(3-chloro-4-hydroxybenzamido)propyl)-2,3-dioxopiperazine-1-carboxamido)-2-(2-chloro-5-fluoro-3,4-dihydroxyphenyl)acetamido)-7-fluoro-2-hydroxy-3,4-dihydro-2H-benzo[e][1,2]oxaborinine-8-carboxylic acid] | – | – | – | – | – | – | – | – | – | – | – | – | – | – | – | – | 16 to 32 (≈ 20.1 to 40.3 µM) | > 64 | > 64 | > 64 | –
O=C(NCCCN1CCN(C(=O)NC(C(=O)N[C@H]2Cc3ccc(F)c(C(=O)O)c3OB2O)c2cc(F)c(O)c(O)c2Cl)C(=O)C1=O)c1ccc(O)c(F)c1F (stereo partly drawn) [Example 306, (3R)-3-(2-(2-chloro-5-fluoro-3,4-dihydroxyphenyl)-2-(4-(3-(2,3-difluoro-4-hydroxybenzamido)propyl)-2,3-dioxopiperazine-1-carboxamido)acetamido)-7-fluoro-2-hydroxy-3,4-dihydro-2H-benzo[e][1,2]oxaborinine-8-carboxylic acid] | – | – | – | – | – | – | – | – | – | – | – | – | – | – | – | – | 16 to 32 (≈ 20.1 to 40.2 µM) | > 64 | > 64 | > 64 | –
O=C(NCCCN1CCN(C(=O)NC(C(=O)N[C@H]2Cc3ccc(F)c(C(=O)O)c3OB2O)c2cc(F)c(O)c(O)c2Cl)C(=O)C1=O)c1ccc(O)cc1O (stereo partly drawn) [Example 307, (3R)-3-(2-(2-chloro-5-fluoro-3,4-dihydroxyphenyl)-2-(4-(3-(2,4-dihydroxybenzamido)propyl)-2,3-dioxopiperazine-1-carboxamido)acetamido)-7-fluoro-2-hydroxy-3,4-dihydro-2H-benzo[e][1,2]oxaborinine-8-carboxylic acid] | – | – | – | – | – | – | – | – | – | – | – | – | – | – | – | – | 16 to 32 (≈ 20.6 to 41.2 µM) | > 64 | > 64 | > 64 | –
